Reference: patent US11834450B2, “Compounds having ((3-nitrophenyl)sulfonyl)acetamide as BCL-2 inhibitors” (Eil Therapeutics, Inc., priority 2021, dated 2023)

How the values were obtained:
RS4-11 cells = assay: Cell viability assay RS4-11 (CellTiter-Glo); format: cell-based; conditions: Homo sapiens, 72 h; RS4-11 cells, 3 days, CellTiter-Glo; read-out: RS4-11 (CC50 code)
Procedure, shortened: (§1)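 Cells were seeded at 2000/well (HEK293, in DMEM, pre-incubated a day) or 4000/well (other lines, in RPMI-1640). Serially diluted compound was added and plates incubated 3 days at 37 °C, with viability read by CellTiter-Glo luminescence.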

MOLT-4 cells = assay: Cell viability assay MOLT-4 (CellTiter-Glo); format: cell-based; conditions: Homo sapiens, 72 h; MOLT-4 cells, 3 days, CellTiter-Glo; read-out: MOLT-4 (CC50 code)
Procedure, shortened: as §1

BCL-XL = target: T1, BCL-XL (Homo sapiens, UniProt Q07817); assay: BCL-XL TR-FRET Assay (primary PPI inhibition); format: binding; conditions: 60 min incubation; read-out: BCLxL (IC50 code, BCL-XL TR-FRET)
T1 construct: purchased BPS Bioscience #50223
Procedure, shortened: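 TR-FRET readout (ex 340 nm; em 620/665 nm; 60 μs delay, 500 μs integration) after a 60 min incubation. Mix: compound, 10.5 ng BCL-XL, BCL-XL peptide ligand at 1:80, plus anti-His Tb donor and dye acceptor each at 1:100.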

[1] = test system: caspase-3 and -7 activities in RS4-11 cells; assay: Cas-3/7 activation (Caspase-Glo 3/7) in RS4-11 cells; format: cell-based; conditions: Homo sapiens, 3.5 h at 37° C. and 30 min at r.t., read-out: Cas-3/7 (EC50 code)
Procedure, shortened: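 RS4-11 cells were exposed to graded compound concentrations for 3.5 h at 37° C/5% CO2, then 30 min at room temperature. Caspase-3/7 activity was measured by luminescence after 30 min with a DEVD luminogenic substrate reagent.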

BCL-2 = target: T2, BCL-2 (Homo sapiens, UniProt P10415); assay: BCL-2 TR-FRET Assay (primary PPI inhibition); format: binding; conditions: 60 min incubation; read-out: BCL2 (IC50 code, BCL-2 TR-FRET)
T2 construct: purchased BPS Bioscience #50222

[2] = Cell viability assay HEK293 (CellTiter-Glo); format: cell-based; conditions: human, HEK293 cells, read-out: HEK293 (CC50 code)
Procedure, shortened: as §1

T1 sequence (Q07817 whole entry): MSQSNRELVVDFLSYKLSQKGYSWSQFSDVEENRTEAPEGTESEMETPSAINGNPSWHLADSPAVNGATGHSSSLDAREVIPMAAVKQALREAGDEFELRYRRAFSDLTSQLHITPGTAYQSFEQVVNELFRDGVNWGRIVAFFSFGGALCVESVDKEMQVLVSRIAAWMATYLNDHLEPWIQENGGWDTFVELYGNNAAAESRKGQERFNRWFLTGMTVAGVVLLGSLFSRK
T2 sequence (P10415 whole entry): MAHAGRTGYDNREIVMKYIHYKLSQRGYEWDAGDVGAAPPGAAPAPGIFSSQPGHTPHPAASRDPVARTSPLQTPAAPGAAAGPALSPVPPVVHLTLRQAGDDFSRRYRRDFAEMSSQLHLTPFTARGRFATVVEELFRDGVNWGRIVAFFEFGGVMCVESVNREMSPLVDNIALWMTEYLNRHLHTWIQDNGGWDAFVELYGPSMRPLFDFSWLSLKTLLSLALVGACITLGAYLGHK

IC50 (BCL-XL) [nM] | EC50 [1] [nM] | IC50 (BCL-2) [nM] | SMILES | CC50 (RS4-11 cells) [nM] | CC50 (MOLT-4 cells) [nM] | CC50 at 3 days [2] [nM]
2000 to 4000 | > 250 | 5 to 10 | O=C(NS(=O)(=O)c1ccc(NCC2CCOCC2)c([N+](=O)[O-])c1)c1ccc(N2CCN(C[C@@H]3Cc4ccccc4CN3C(=O)C3CCNC3)CC2)cc1Oc1cnc2[nH]ccc2c1 (stereo partly drawn) [Compound 78, N-[3-nitro-4-(tetrahydropyran-4-ylmethylamino)phenyl]sulfonyl-4-[4-[[(3S)-2-(pyrrolidine-3-carbonyl)-3,4-dihydro-1H-isoquinolin-3-yl]methyl]piperazin-1-yl]-2-(1H-pyrrolo[2,3-b]pyridin-5-yloxy)benzamide] | > 200 | > 10000 | > 25000
> 4000 | > 250 | > 50 | O=C(NS(=O)(=O)c1ccc(NC2CCS(=O)(=O)CC2)c([N+](=O)[O-])c1)c1ccc(N2CCC(CN3CCCCC3c3ccc(Cl)cc3)CC2)cc1Oc1cnc2[nH]ccc2c1 (stereo not drawn) [Compound 79, 4-[4-[[2-(4-chlorophenyl)-1-piperidyl]methyl]-1-piperidyl]-N-[4-[(1,1-dioxothian-4-yl)amino]-3-nitro-phenyl]sulfonyl-2-(1H-pyrrolo[2,3-b]pyridin-5-yloxy)benzamide] | > 200 | 2000 to 10000 | > 25000
≤ 2000 | > 250 | > 50 | O=C(NS(=O)(=O)c1ccc(NCC2CCOCC2)c([N+](=O)[O-])c1)c1ccc(N2CCN(CC34CC(O)CCC3(c3ccc(Cl)cc3)C4)CC2)cc1Oc1cnc2[nH]ccc2c1 (stereo not drawn) [Compound 80, 4-[4-[[6-(4-chlorophenyl)-3-hydroxy-norcaran-1-yl]methyl]piperazin-1-yl]-N-[3-nitro-4-(tetrahydropyran-4-ylmethylamino)phenyl]sulfonyl-2-(1H-pyrrolo[2,3-b]pyridin-5-yloxy)benzamide] | > 200 | > 10000 | 10000 to 25000
